pIC50: −log10 of the molar value. “And” between values parts separate entries of the source, which are not always exact repeats. Equal values may be shown once.
These molecules were tested against Mitogen-activated protein kinase kinase kinase kinase 1 (Homo sapiens, UniProt Q92918) (assay: HPK1-SLP76 TR-FRET ASSAY).
Chain of Mitogen-activated protein kinase kinase kinase kinase 1 (Q92918 whole entry): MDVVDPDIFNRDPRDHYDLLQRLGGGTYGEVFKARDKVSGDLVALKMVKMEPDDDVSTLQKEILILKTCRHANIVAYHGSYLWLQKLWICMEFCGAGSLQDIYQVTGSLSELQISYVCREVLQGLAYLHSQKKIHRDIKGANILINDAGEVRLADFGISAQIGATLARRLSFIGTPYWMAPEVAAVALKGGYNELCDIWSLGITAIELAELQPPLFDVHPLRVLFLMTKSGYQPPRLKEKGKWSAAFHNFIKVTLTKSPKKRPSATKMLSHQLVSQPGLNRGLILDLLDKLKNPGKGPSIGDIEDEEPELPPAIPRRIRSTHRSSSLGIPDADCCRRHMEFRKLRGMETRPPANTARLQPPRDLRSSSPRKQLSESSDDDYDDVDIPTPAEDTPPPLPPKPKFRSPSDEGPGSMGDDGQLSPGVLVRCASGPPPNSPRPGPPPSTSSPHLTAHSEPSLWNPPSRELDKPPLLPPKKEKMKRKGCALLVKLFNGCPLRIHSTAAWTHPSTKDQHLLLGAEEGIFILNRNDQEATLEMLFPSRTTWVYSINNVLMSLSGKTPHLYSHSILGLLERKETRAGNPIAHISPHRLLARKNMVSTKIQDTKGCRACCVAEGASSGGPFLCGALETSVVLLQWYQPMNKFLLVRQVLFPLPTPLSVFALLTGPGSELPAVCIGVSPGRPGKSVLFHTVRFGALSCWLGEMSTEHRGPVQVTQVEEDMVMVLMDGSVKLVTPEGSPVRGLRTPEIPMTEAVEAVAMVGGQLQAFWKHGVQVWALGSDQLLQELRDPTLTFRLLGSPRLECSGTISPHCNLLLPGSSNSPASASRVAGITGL

Question: COc1cc2c(cc1Nc1ncc3ccc(NCC4CCS(=O)(=O)C4)cc3n1)CN(C)CC2 (stereo unspecified) [WO2022098806, Compound 3-37] was tested. Which pIC50 did it give?
Answer: 7.14

Question: COc1cc2c(cc1Nc1ncc3ccc(OCc4ccc(N5CCNCC5)nc4)cc3n1)CN(C)CC2 [WO2022098806, Compound 4-1] was tested. Which pIC50 did it give?
Answer: 7.82

Question: Cc1c(-c2cc3nc(Nc4ccc(CS(C)(=O)=O)cc4)ncc3cc2F)cnc2c1NCCO2 [WO2022098806, Compound 1-115] was tested. Which pIC50 did it give?
Answer: 10.30

Question: CCS(=O)(=O)Cc1ccc(Nc2ncc3c(N)c(F)c(-c4cnc5c(c4C)NCCO5)cc3n2)c(OC)c1 [WO2022098806, Compound 2-89] was tested. Which pIC50 did it give?
Answer: 11.00

Question: How did the pIC50 turn out when COc1ccccc1Nc1ncc2c(N)c(F)c(-c3cnc4c(c3C)NCCO4)cc2n1 [WO2022098806, Compound 2-71] was run?
Answer: 9.60

Question: With CC(=O)N[C@H]1CCc2cc(Nc3ncc4c(N)c(F)c(-c5cnc6c(c5C)NCCO6)cc4n3)ccc21 [WO2022098806, Compound 2-11] as the molecule, how does the pIC50 read?
Answer: 10.10

Question: With Cc1c(-c2cc3nc(Nc4ccc5c(c4)CN(C(C)C)CC5)ncc3c(N)c2F)cnc2c1NCCO2 [WO2022098806, Compound 2-76] as the molecule, how does the pIC50 read?
Answer: 10.52

Question: COc1cc2c(cc1Nc1ncc3ccc(NCC4CNC(=O)O4)cc3n1)CN(C)CC2 (stereo unspecified) [WO2022098806, Compound 3-26] was tested. Which pIC50 did it give?
Answer: 6.83

Question: Cc1c(-c2cc3nc(Nc4ccc(CS(=O)(=O)C(C)C)cc4)ncc3cc2F)cnc2c1NCCO2 [WO2022098806, Compound 1-128] was tested. Which pIC50 did it give?
Answer: 10.10

Question: Cc1c(-c2cc3nc(Nc4ccc5c(c4)CN(C)CC5)ncc3cc2F)cnc2c1NCCO2 [WO2022098806, Compound 1-114] was tested. Which pIC50 did it give?
Answer: 10.05

Question: How did the pIC50 turn out when Cc1c(-c2cc3nc(Nc4ccc(CS(C)(=O)=O)cc4)ncc3c(N)c2F)cnc2c1NCC(C)(C)O2 [WO2022098806, Compound 2-165] was run?
Answer: 10.00

Question: CN1CCc2ccc(Nc3ncc4c(N)c(F)c(-c5cncc6[nH]ccc56)cc4n3)cc2C1 [WO2022098806, Compound 2-139] was tested. Which pIC50 did it give?
Answer: 10.40

Question: CC(=O)Nc1ccc(Nc2ncc3c(N)c(F)c(-c4cnc5c(c4C)NCCO5)cc3n2)cc1 [WO2022098806, Compound 2-15] was tested. Which pIC50 did it give?
Answer: 10.15

Question: How did the pIC50 turn out when COc1cc2c(cc1Nc1ncc3ccc(N4CC(C)(CO)OC4=O)cc3n1)CN(C)CC2 (stereo unspecified) [WO2022098806, Compound 3-7] was run?
Answer: 7.35

Question: COC1CC(NC(=O)c2ccc(Nc3ncc4c(N)c(F)c(-c5cnc6c(c5C)NCCO6)cc4n3)cc2)C1 (stereo unspecified) [WO2022098806, Compound 2-58] was tested. Which pIC50 did it give?
Answer: 10.10

Question: With COc1cc2c(cc1Nc1ncc3ccc(N(C)CC4CNC(=O)O4)cc3n1)CN(C)CC2 (stereo unspecified) [WO2022098806, Compound 3-30] as the molecule, how does the pIC50 read?
Answer: 6.83

Question: How did the pIC50 turn out when CNC(=O)C1(c2ccc(Nc3ncc4c(N)c(F)c(-c5cnc6c(c5C)NCCO6)cc4n3)cc2)CCCC1 [WO2022098806, Compound 2-83] was run?
Answer: 10.40

Question: How did the pIC50 turn out when COc1cc(C2CC2)ccc1Nc1ncc2c(N)c(F)c(-c3cnc4c(c3C)NCCO4)cc2n1 [WO2022098806, Compound 2-176] was run?
Answer: 7.77

Question: With COc1cc2c(cc1Nc1ncc3c(N)c(F)c(-c4cnc5c(c4C)NCCO5)cc3n1)CN(C)CC2 [WO2022098806, Compound 2-2] as the molecule, how does the pIC50 read?
Answer: 10.05

Question: With COc1cc2c(cc1Nc1ncc3ccc(-c4cnccc4Cl)cc3n1)CNCC2 [WO2022098806, Compound 1-37] as the molecule, how does the pIC50 read?
Answer: 7.55

Question: Cc1c(-c2cc3nc(Nc4ccc5c(c4)CN(C)CC5)ncc3c(N)c2F)cnc2cc[nH]c12 [WO2022098806, Compound 2-130] was tested. Which pIC50 did it give?
Answer: 10.00

Question: With COc1cc([C@@H]2CCN(C)C2=O)ccc1Nc1ncc2c(N)c(F)c(-c3cnc4c(c3C)NCCO4)cc2n1 [WO2022098806, Compound 2-54] as the molecule, how does the pIC50 read?
Answer: 10.10

Question: With COc1cc2c(cc1Nc1ncc3ccc(N4CC5CCS(=O)(=O)C5C4)cc3n1)CN(C)CC2 (stereo unspecified) [WO2022098806, Compound 3-60] as the molecule, how does the pIC50 read?
Answer: 6.09

Question: How did the pIC50 turn out when CNC(=O)Cc1ccc(Nc2ncc3cc(F)c(-c4cnc5c(c4C)NCCO5)cc3n2)cc1 [WO2022098806, Compound 1-130] was run?
Answer: 10.15

Question: Cc1c(-c2cc3nc(Nc4ccc5c(c4)CN(C)[C@@H](C)C5)ncc3c(N)c2F)cnc2c1NCCO2 [WO2022098806, Compound 2-85] was tested. Which pIC50 did it give?
Answer: 10.52

Question: COc1cc2c(cc1Nc1ncc3ccc(-c4cccc(S(=O)(=O)N5CCOCC5)c4)cc3n1)CNCC2 [WO2022098806, Compound 1-77] was tested. Which pIC50 did it give?
Answer: 7.60

Question: With Cc1c(-c2c(F)c(N)c3cnc(Nc4ccc5c(c4)CN(C(C)C)CC5)nc3c2Cl)cnc2c1NCCO2 [WO2022098806, Compound 2-102] as the molecule, how does the pIC50 read?
Answer: 10.10 and 9.70 and 10.40

Question: COc1cc2c(cc1Nc1ncc3ccc(Nc4nc(S(C)(=O)=O)ccc4F)cc3n1)CN(C)CC2 [WO2022098806, Compound 3-36] was tested. Which pIC50 did it give?
Answer: 8.38

Question: With Cc1c(-c2c(F)c(N)c3cnc(Nc4cc5c(cc4F)CCN(C)C5)nc3c2Cl)cnc2c1NCCO2 [WO2022098806, Compound 2-184] as the molecule, how does the pIC50 read?
Answer: 10.05

Question: COc1cc2c(cc1Nc1ncc3c(N)c(F)c(-c4cnc5c(c4C)NCCO5)cc3n1)C(C)N(C)C(C)C2 (stereo unspecified) [WO2022098806, Compound 2-48] was tested. Which pIC50 did it give?
Answer: 9.15

Question: Cc1c(-c2cc3nc(Nc4ccc(CS(=O)(=O)CC(F)(F)F)cc4)ncc3c(N)c2F)cnc2c1NCCO2 [WO2022098806, Compound 2-149] was tested. Which pIC50 did it give?
Answer: 9.72

Question: CN1Cc2cc(Nc3ncc4c(N)c(F)c(-c5cnc6c(c5Cl)NCCO6)cc4n3)ccc2C2(CC2)C1 [WO2022098806, Compound 2-152] was tested. Which pIC50 did it give?
Answer: 10.15

Question: How did the pIC50 turn out when Cc1c(-c2c(F)c(N)c3cnc(Nc4ccc(CS(C)(=O)=O)cc4F)nc3c2Cl)cnc2c1NCCO2 [WO2022098806, Compound 2-135] was run?
Answer: 9.89

Question: How did the pIC50 turn out when Cc1c(-c2cc3nc(Nc4ccc(C5(S(C)(=O)=O)CC5)cc4)ncc3c(N)c2F)cnc2c1NCCO2 [WO2022098806, Compound 2-148] was run?
Answer: 10.10

Question: With Cc1c(-c2cc3nc(Nc4cc5c(cc4F)CCN(C)C5)ncc3c(N)c2F)cnc2c1NCCO2 [WO2022098806, Compound 2-59] as the molecule, how does the pIC50 read?
Answer: 10.30

Question: CC(=O)N1CCC[C@@H]1c1ccc(Nc2ncc3c(N)c(F)c(-c4cnc5c(c4C)NCCO5)cc3n2)cc1 [WO2022098806, Compound 2-28] was tested. Which pIC50 did it give?
Answer: 9.82

Question: How did the pIC50 turn out when COc1cc2c(cc1Nc1ncc3ccc(Nc4cccc(CO)c4)cc3n1)CN(C)CC2 [WO2022098806, Compound 3-31] was run?
Answer: 7.54

Question: With Cc1c(-c2cc3nc(Nc4ccccc4)ncc3c(N)c2F)cnc2c1NCCO2 [WO2022098806, Compound 2-25] as the molecule, how does the pIC50 read?
Answer: 9.57

Question: How did the pIC50 turn out when COc1cc2c(cc1Nc1ncc3ccc(-c4cccc(CO)c4)cc3n1)CNCC2 [WO2022098806, Compound 1-60] was run?
Answer: 7.70

Question: Cc1c(-c2cc3nc(Nc4ccc5c(c4)CN(C)CC5(C)C)ncc3c(N)c2F)cnc2c1NCCO2 [WO2022098806, Compound 2-150] was tested. Which pIC50 did it give?
Answer: 10.22

Question: With COc1cc2c(cc1Nc1ncc3ccc(N4CCCC(CN5CCCC5=O)C4)cc3n1)CN(C)CC2 (stereo unspecified) [WO2022098806, Compound 3-20] as the molecule, how does the pIC50 read?
Answer: 6.11

Question: How did the pIC50 turn out when Cc1c(-c2cc3nc(Nc4ccc5c(c4)CN(C)CCC5)ncc3c(N)c2F)cnc2c1NCCO2 [WO2022098806, Compound 2-117] was run?
Answer: 10.40

Question: How did the pIC50 turn out when COc1cc([C@H](C)S(C)(=O)=O)ccc1Nc1ncc2c(N)c(F)c(-c3cnc4c(c3C)NCCO4)cc2n1 [WO2022098806, Compound 2-55] was run?
Answer: 8.79

Question: How did the pIC50 turn out when Cc1ccncc1-c1cc2nc(Nc3ccc(CS(C)(=O)=O)cc3)ncc2c(N)c1F [WO2022098806, Compound 2-44] was run?
Answer: 9.72

Question: Cc1c(-c2cc3nc(Nc4ccc5c(c4)CN(C)CC5)ncc3c(N)c2F)cnc2c1NCCO2 [WO2022098806, Compound 2-70] was tested. Which pIC50 did it give?
Answer: 10.30

Question: How did the pIC50 turn out when COc1cc2c(cc1Nc1ncc3c(N)cc(Nc4cc(CO)ccn4)cc3n1)CN(C)CC2 [WO2022098806, Compound 3-80] was run?
Answer: 8.55

Reference: BindingDB's records for patent WO2022098806 (MERCK SHARP & DOHME LLC, 2022)
